According to US7348301B2, “Lysozyme-based method and composition to control the growth of microorganisms in aqueous systems” (Buckman Laboratories International, Inc., priority 2006, dated 2008):

Key:
[1] = test system: Chlorella sp. (ATCC 7516); assay: Evaluation of algaecidal activity (MIC, checkerboard synergy) against Chlorella sp.; type: cell-based; settings: for MIC (ppm product): Chlorella sp. (ATCC 7516), 14 days at 24 C, 16 h light/8 h darkness, enzyme alone; for [A]/MICA + [B]/MICB (Fractional Inhibitory Concentration Index, FIC): Chlorella sp., <1 denotes synergy
Experimental: (§1) A. Evaluation of Algaecidal Activity. This test method provides a technique for testing compounds for their effectiveness to inhibit (repress) algae growth.
(§2) Cell suspension from a culture grown in modified Allen's medium for 14 days or as needed to attain a desired cell mass of Chlorella sp. (ATCC 7516) or Phormidium faveolarum (UTEX 427). The inoculum is calibrated at 82% transmittance measured at 590 nanometers wavelength before inoculation.
(§3) Sterilize the medium in the autoclave for 20 minutes at 15 pounds pressure (121° C.). After autoclaving, cool medium to 45-50° C. and dispense 5 ml of medium per test tube, then add the compound and the inoculum.
(§4) Prepare a stock solution in water of the compound to be tested. The concentration of the stock solution is dependent on the largest dosage desired to be tested. Dilute the stock solution to obtain dosages smaller than that chosen for the stock solution. A maximum amount of 100 microliters of stock solution or the corresponding dilution should be added per test tube.
• Add 100 microliters of inoculum per test tube, per type of medium and type of inoculum. Incubation: • Place the test tubes containing the treatments in an incubator set at 24° C. Light is provided by plant growth fluorescent tubes set to provide 16 h of light and 8 h of darkness. […] The minimum inhibitory concentration (MIC) of the compound is the smallest dosage showing negative algae growth. Synergy Evaluation:
Synergy was measured by checkerboards dilutions (Yan and Hancock, 2001), in which one compound is diluted along the rows of test tubes and the other is diluted along the columns. This method focuses on looking for a reduction in the MIC of each component in the presence of the other.

[2] = test system: Phormidium faveolarum (UTEX 427); assay: Evaluation of algaecidal activity (MIC, checkerboard synergy) against Phormidium faveolarum; type: cell-based; settings: <1 denotes synergy
Experimental: as §1, §2, §3, §4
• Add 100 microliters of inoculum per test tube, per type of medium and type of inoculum. Incubation: • Place the test tubes containing the treatments in an incubator set at 24° C. […]
Synergy was measured by checkerboards dilutions (Yan and Hancock, 2001), in which one compound is diluted along the rows of test tubes and the other is diluted along the columns. […]

Lysozyme [Lysozyme (Sigma)]
MIC (ppm product) [1]: 0.4-0.7 ppm product

Lysozyme Chloride [Lysozyme Chloride (NutriScience)]
MIC (ppm product) [1]: 0.4-0.7 ppm product

Benzalkonium Chloride [reference compound]
[A]/MICA + [B]/MICB (Fractional Inhibitory Concentration Index, FIC) ([1]; Example 1, 18 days): 1.000 | [A]/MICA + [B]/MICB (Fractional Inhibitory Concentration Index, FIC) ([2]; Example 2, 18 days): 1.00

Lysozyme Chloride [Lysozyme Chloride (MP Biomedicals)]
MIC (ppm product) [1]: 0.1-0.4 ppm product

[Cl-].[Na+] [Sodium Chloride]
[A]/MICA + [B]/MICB (Fractional Inhibitory Concentration Index, FIC) ([1]; Example 10, 14 days): 1.000 | [A]/MICA + [B]/MICB (Fractional Inhibitory Concentration Index, FIC) ([2]; Example 11, 14 days): 1.00
